Results taken from patent US11865132B2, “Nucleoside derivatives and methods of use thereof” (Ascletis BioScience Co., Ltd., priority 2021, dated 2024).

Test: Permeability of compounds in Caco-2 assay (bi-directional transport)
Type: in vitro ADME
Conditions: human, pH 7.4; for Papp A→B at 2 h, 2 μM / Papp B→A at 2 h, 2 μM: Caco-2 monolayer, pH 7.40; for Papp A→B at 2 h, 2 μM: A to B; for Papp B→A at 2 h, 2 μM: B to A
Description: Caco-2 cells purchased from ATCC were seeded onto […] (PET) in 96-well Corning Insert plates at 1×10^5 cells/cm2, and refreshed medium every 4˜5 days until to the 21st to 28th day for confluent cell monolayer formation. The transport buffer in the study was HBSS with 10.0 mM HEPES at pH 7.40±0.05. Test compound was tested at 2.00 μM bi-directionally in duplicate. Digoxin was tested at 10.0 μM bi-directionally in duplicate, while nadolol and metoprolol were tested at 2.00 μM in A to B direction in duplicate. Final DMSO concentration was adjusted to less than 1%. The plate was incubated for 2 hours in CO2 incubator at 37±1° C., with 5% CO2 at saturated humidity without shaking. […] For nadolol and metoprolol, 200 μL supernatant solution was diluted with 600 μL ultra-pure water for LC-MS/MS analysis. For digoxin and test compounds, 200 μL supernatant solution was diluted with 200 μL ultra-pure water for LC-MS/MS analysis Concentrations of test and control compounds in starting solution, donor solution, and receiver solution were quantified by LC-MS/MS methodologies, using peak area ratio of analyte/internal standard. After transport assay, lucifer yellow rejection assay was applied to determine the Caco-2 cell monolayer integrity. The apparent permeability coefficient Papp (cm/s) was calculated using the equation: Papp=(dCr/dt)×Vr/(A×C0) Where dCr/dt is the cumulative concentration of compound in the receiver chamber as a function of time (μM/s); Vr is the solution volume in the receiver chamber (0.075 mL on the apical side, 0.25 mL on the basolateral side); A is the surface area for the transport, i.e. 0.0804 cm2 for the area of the monolayer, CO is the initial concentration in the donor chamber (μM).

Row | Papp at 2 h, 2 μM (Caco-2, binning criteria Low/Moderate/High, read-out: Papp (permeability bin)) | Papp A→B at 2 h, 2 μM | Papp B→A at 2 h, 2 μM | efflux ratio at 2 h, 2 μM (Papp(BA)/Papp(AB), Caco-2) | SMILES
1 | 20 to 200 nm/s | 5.65 nm/s | 20.4 nm/s | 3.61 | CC(C)C(=O)OC[C@H]1O[C@@H](n2ccc(NO)nc2=O)[C@@H]2OC(=O)O[C@@H]21 [Compound 1, ((3aR,4R,6R,6aR)-6-((Z)-4-(hydroxyimino)-2-oxo-3,4-dihydropyrimidin-1(2H)-yl)-2-oxotetrahydrofuro[3,4-d][1,3]dioxol-4-yl)methyl isobutyrate]
2 | – | < 2.93 nm/s | 5.27 nm/s | – | CC(C)C(=O)OC[C@H]1O[C@@H](n2ccc(NO)nc2=O)[C@H](O)[C@@H]1O [molnupiravir, reference compound]
